According to patent US10072006B2 (MUTABILIS, priority 2015, dated 2018):

How the values were obtained:
OXA-15 = target: T1, OXA-15 (Pseudomonas aeruginosa, UniProt Q51574); test: β-lactamase inhibitory activity, determination of IC50 (nitrocefin hydrolysis); format: biochemical
T1 construct: made in house; host or cells: E. coli

TEM-1 = target: T2, TEM-1 (Escherichia coli, UniProt P62593); test: as above; format: biochemical; settings: class (A), 30 min pre-incubation
T2 construct: made in house; host or cells: E. coli
T2 sequence (P62593 24-286 limits assumed): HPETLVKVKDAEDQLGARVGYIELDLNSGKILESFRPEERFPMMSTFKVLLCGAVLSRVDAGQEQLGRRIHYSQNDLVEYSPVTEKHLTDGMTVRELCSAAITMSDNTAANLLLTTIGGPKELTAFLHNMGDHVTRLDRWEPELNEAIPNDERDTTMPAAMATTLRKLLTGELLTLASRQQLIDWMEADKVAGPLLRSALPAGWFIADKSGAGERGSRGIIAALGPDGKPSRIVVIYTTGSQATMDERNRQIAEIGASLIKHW

[1] = test system: E. cloacae UFR85 (TEM-1, CTX-M-15, derepressed ampC); test: microbe, parasite or virus in culture; format: cell-based; settings: for MIC: Enterobacter cloacae, 18 h, read-out: MIC compounds of the invention alone
Method: […] […] Microplates were incubated for 16-20 h at 35° C. in ambient air. The MIC of the compounds was defined as the lowest concentration of said compounds that prevented bacterial growth as read by visual inspection.

[2] = test system: P. aeruginosa UFR59 (IMP-29); test: MIC of compounds and synergy with ceftazidime (broth microdilution); format: cell-based; settings: strain UFR59 (P. aeruginosa); for MIC: Pseudomonas aeruginosa, 18 h, read-out: MIC compounds of the invention alone
How it was run: (§1)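 Each compound, alone and in DMSO, is spotted onto sterile polystyrene plates, which are then incubated in ambient air at 35° C for 16 to 20 h. Inhibition of bacterial growth, judged visually, defines the MIC as the lowest effective concentration.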

[3] = test system: E. coli 131119 (TEM-1, OXA-48); test: as above; format: cell-based; settings: strain 131119 (E. coli); for MIC: Escherichia coli, 18 h, read-out: MIC compounds of the invention alone; for MIC, combination of CAZ and compounds of the invention: MIC of ceftazidime with compound fixed at 4 μg/mL
How it was run: as §1

[4] = test system: P. aeruginosa CIP107051 (TEM-24); test: as above; format: cell-based; settings: strain CIP107051 (P. aeruginosa); for MIC, combination of CAZ and compounds of the invention: MIC of ceftazidime with compound fixed at 4 μg/mL; for MIC: Pseudomonas aeruginosa, 18 h, read-out: MIC compounds of the invention alone
How it was run: as §1

[5] = test system: E. coli UFR61O (TEM-1, KPC-2); test: as above; format: cell-based; settings: for MIC: Escherichia coli, strain UFR61O (E. coli), read-out: MIC compounds of the invention alone; for MIC, combination of CAZ and compounds of the invention: MIC of ceftazidime with compound fixed at 4 μg/mL, strain UFR610 (E. coli)
How it was run: (§2)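 Read-out is visual: the MIC is the lowest concentration at which no bacterial growth is seen. Plates held compounds spotted from DMSO solutions and were kept at 35° C in ambient air for 16-20 h.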

[6] = test system: K. pneumoniae UFR24 (TEM-1, SHV-2, SHV-11, OXA-1, OXA-48, OXA-47); test: as above; format: cell-based; settings: strain UFR24 (K. pneumoniae); for MIC: Klebsiella pneumoniae, 18 h, read-out: MIC compounds of the invention alone; for MIC, combination of CAZ and compounds of the invention: MIC of ceftazidime with compound fixed at 4 μg/mL
How it was run: as §1

[7] = test system: E. coli UFR52 (TEM-1, SHV-12, IMP-8); test: as above; format: cell-based; settings: strain UFR52 (E. coli); for MIC: Escherichia coli, 18 h, read-out: MIC compounds of the invention alone; for MIC, combination of CAZ and compounds of the invention: MIC of ceftazidime with compound fixed at 4 μg/mL
How it was run: as §1

E. coli RGN238 (OXA-1) = test: as above; format: cell-based; settings: strain RGN238 (E. coli); for MIC: Escherichia coli, 18 h, read-out: MIC compounds of the invention alone; for MIC, combination of CAZ and compounds of the invention: MIC of ceftazidime with compound fixed at 4 μg/mL
How it was run: as §1

[8] = test system: P. aeruginosa UFR47 (VIM-1); test: as above; format: cell-based; settings: strain UFR47 (P. aeruginosa); for MIC: Pseudomonas aeruginosa, 18 h, read-out: MIC compounds of the invention alone
How it was run: as §2

[9] = test system: K. pneumoniae 6299 (TEM-1, SHV-11, OXA-163); test: as above; format: cell-based; settings: strain 6299 (K. pneumoniae); for MIC: Klebsiella pneumoniae, 18 h, read-out: MIC compounds of the invention alone; for MIC, combination of CAZ and compounds of the invention: MIC of ceftazidime with compound fixed at 4 μg/mL
How it was run: as §1

AmpC (PAE) = AmpC (PAE) (Pseudomonas aeruginosa, UniProt P24735); test: biochemical
AmpC (PAE), sequence (P24735 27-397): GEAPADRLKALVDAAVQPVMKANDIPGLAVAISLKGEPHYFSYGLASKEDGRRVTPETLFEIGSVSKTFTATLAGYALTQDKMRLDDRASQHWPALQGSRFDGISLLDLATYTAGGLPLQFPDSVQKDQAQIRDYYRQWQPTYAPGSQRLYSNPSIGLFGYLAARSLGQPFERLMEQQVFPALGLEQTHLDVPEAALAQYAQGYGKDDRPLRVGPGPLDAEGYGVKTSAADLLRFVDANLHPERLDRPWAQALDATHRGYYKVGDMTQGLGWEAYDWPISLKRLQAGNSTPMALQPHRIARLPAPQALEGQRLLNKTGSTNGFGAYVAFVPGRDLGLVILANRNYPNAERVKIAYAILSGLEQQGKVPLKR

[10] = test system: P. aeruginosa UFR90 (Derepressed ampC, OprD-); test: MIC of compounds and synergy with ceftazidime (broth microdilution); format: cell-based
How it was run: as §1

[11] = test system: P. aeruginosa UFR92 (Derepressed ampC, OprD-); test: as above; format: cell-based; settings: MIC of ceftazidime with compound fixed at 4 μg/mL; strain UFR92 (P. aeruginosa)
How it was run: as §2

[12] = MIC of ceftazidime with compound fixed at 4 μg/mL

T1 sequence (Q51574 22-275): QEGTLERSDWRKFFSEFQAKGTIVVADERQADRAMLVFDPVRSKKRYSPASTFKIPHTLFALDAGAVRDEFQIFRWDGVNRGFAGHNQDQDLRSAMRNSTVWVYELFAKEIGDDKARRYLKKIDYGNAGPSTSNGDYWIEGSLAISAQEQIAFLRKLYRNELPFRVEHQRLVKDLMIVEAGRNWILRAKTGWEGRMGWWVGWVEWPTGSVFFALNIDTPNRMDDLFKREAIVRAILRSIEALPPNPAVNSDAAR

NC[C@@H]1C(c2ncco2)=C[C@@H]2CN1C(=O)N2OS(=O)(=O)[O-].O=C(O)C(F)(F)F.[Na+] [Example 5, Sodium and 2,2,2-trifluoroacetate [(2S,5R)-2-(azaniumylmethyl)-7-oxo-3-oxazol-2-yl-1,6-diazabicyclo[3.2.1]oct-3-en-6-yl] sulfate]
IC50 (OXA-15): 8 nM | IC50 (TEM-1): 110 nM | MIC [1]: 8 µg/mL | MIC, combination of CAZ and compounds of the invention ([1]; MIC of ceftazidime with compound fixed at 4 μg/mL, strain UFR85 (E. cloacae)): <0.25 µg/mL | MIC [2]: 2 µg/mL | MIC [3]: 0.063 µg/mL | MIC, combination of CAZ and compounds of the invention [3]: <0.25 µg/mL | MIC, combination of CAZ and compounds of the invention [4]: <0.25 µg/mL | MIC [4]: 2 µg/mL | MIC [5]: 0.5 µg/mL | MIC, combination of CAZ and compounds of the invention [5]: <0.25 µg/mL | MIC [6]: > 32 µg/mL | MIC, combination of CAZ and compounds of the invention [6]: <0.25 µg/mL | MIC [7]: 4 µg/mL | MIC, combination of CAZ and compounds of the invention [7]: <0.25 µg/mL | MIC (E. coli RGN238 (OXA-1)): 16 µg/mL | MIC, combination of CAZ and compounds of the invention (E. coli RGN238 (OXA-1)): <0.25 µg/mL | MIC [8]: 1 µg/mL | MIC [9]: > 32 µg/mL | MIC, combination of CAZ and compounds of the invention [9]: 8 µg/mL | IC50 (AmpC (PAE)): 12000 nM

NC[C@@H]1C(c2nccs2)=C[C@@H]2CN1C(=O)N2OS(=O)(=O)[O-].O=C(O)C(F)(F)F.[Na+] [Example 2, Sodium and 2,2,2-trifluoroacetate [(2S,5R)-2-(azaniumylmethyl)-7-oxo-3-thiazol-2-yl-1,6-diazabicyclo[3.2.1]oct-3-en-6-yl] sulfate]
IC50 (OXA-15): 0.84 nM | IC50 (TEM-1): 1.7 nM | MIC [1]: 16 µg/mL | MIC, combination of CAZ and compounds of the invention [2, 12]: <0.25 µg/mL | MIC [2]: 8 µg/mL | MIC [3]: ≤ 0.016 µg/mL | MIC, combination of CAZ and compounds of the invention [3]: <0.25 µg/mL | MIC, combination of CAZ and compounds of the invention [4]: <0.25 µg/mL | MIC [4]: 2 µg/mL | MIC [5]: 0.031 µg/mL | MIC, combination of CAZ and compounds of the invention [5]: <0.25 µg/mL | MIC, combination of CAZ and compounds of the invention ([10]; MIC of ceftazidime with compound fixed at 4 μg/mL, strain UFR90 (P. aeruginosa)): <0.25 µg/mL | MIC ([10]; Pseudomonas aeruginosa, 18 h, read-out: MIC compounds of the invention alone): 1 µg/mL | MIC [6]: > 32 µg/mL | MIC, combination of CAZ and compounds of the invention [6]: 0.25 µg/mL | MIC [7]: 4 µg/mL | MIC, combination of CAZ and compounds of the invention [7]: <0.25 µg/mL | MIC (E. coli RGN238 (OXA-1)): 8 µg/mL | MIC, combination of CAZ and compounds of the invention (E. coli RGN238 (OXA-1)): ≤0.125 µg/mL | MIC, combination of CAZ and compounds of the invention [11]: <0.25 µg/mL | MIC, combination of CAZ and compounds of the invention [8, 12]: <0.25 µg/mL | MIC [8]: 2 µg/mL | MIC [9]: > 32 µg/mL | MIC, combination of CAZ and compounds of the invention [9]: 4 µg/mL | IC50 (AmpC (PAE)): 110 nM
